This is an account of results in patent publication US5560907A, “Whitening embellisher” (Eisai Co., Ltd., priority 1992, dated 1996).

Molecules are shown by their SMILES.

Series [1] has as its system tyrosinase, derived from mushroom. Nature of the series: Inhibition of enzyme activity of mushroom tyrosinase. As to conditions: concentration of 0.01-0.1%. Format: biochemical.
Series [2] has as its system tyrosinase in the B16 melanoma cells. The series is described as follows: Amount of tyrosinase in B16 melanoma cells by SDS-PAGE. Format: cell-based, mouse. As to conditions: culture systems added with teprenone.
Series [3] in a line: Solubility in water. Format: physicochemical. The text has this:
The whitening and beautifying preparation suitable for use in a bath according to the present invention means a preparation which can be dissolved in hot water in a bathtub upon bathing to use it, and can be provided as tablets, granules, powder, liquid or the like. It can be formulated according to any process generally used.

In series [4] the test system is B16 melanoma cells derived from a mouse. Nature of the series: Restraint of melanin production in cultured B16 melanoma cells.
Where [5] appears, read: Mus musculus, B16, read-out: production of melanin restrained, to control.

Take `CC(=O)CCC=C(C)CCC=C(C)CCC=C(C)CCC=C(C)C` [teprenone, geranylgeranylacetone]: in series [1], the “action to inhibit the enzyme activity of tyrosinase” value is “did not exhibit any action to inhibit the enzyme activity”. Further, the “amount of tyrosinase in the B16 melanoma cells” value in series [2] is “decreased in proportion to the concentration of teprenone added”. Further, the solubility in water result in series [3] was “insoluble in water”. In series [4] (setting [5]), the inhibition at 0.0001 % was 85%, the inhibition at 0.0002 % turned out to be 80% and the inhibition at 0.0003 % was found to be 70%. For the same compound, the “reversibility of the melanin inhibiting action” value in series [4] (cells cultured again in a system containing no teprenone, melanin greatly increased) is given as “reversible inhibiting action”. Also, in series [4] (sample concentrations 1×10^-4 to 3×10^-4 %), the cytotoxicity entry is listed as “no cytotoxicity was recognized”.

In the case of `OC[C@H]1O[C@@H](Oc2ccc(O)cc2)[C@H](O)[C@@H](O)[C@@H]1O` [arbutin], the “concentration essential for attaining the same effect of the combined use as kojic acid” value in series [4] (arbutin combined with teprenone, equals 10-30 ppm) is 1×10^-3 -3×10^-3%.
